According to ChEMBL document CHEMBL1148458, “Incorporating molecular shape into the alignment-free Grid-Independent Descriptors” (J Med Chem, 2004):
pKi: −log10 of the molar value.

Columns and labels:
Cathepsin D = Cathepsin D (Homo sapiens, UniProt P07339); assay: Binding affinity towards human cathepsin D.
Plasmepsin II = Plasmepsin II (Plasmodium falciparum, UniProt P46925); assay: Binding affinity towards plasmepsin-2 in Plasmodium falciparum.
Adenosine receptor A1 = target: T1, Adenosine receptor A1 (Homo sapiens, UniProt P30542); assay: Binding affinity at adenosine A1 receptor.
T1 sequence (P30542 whole entry): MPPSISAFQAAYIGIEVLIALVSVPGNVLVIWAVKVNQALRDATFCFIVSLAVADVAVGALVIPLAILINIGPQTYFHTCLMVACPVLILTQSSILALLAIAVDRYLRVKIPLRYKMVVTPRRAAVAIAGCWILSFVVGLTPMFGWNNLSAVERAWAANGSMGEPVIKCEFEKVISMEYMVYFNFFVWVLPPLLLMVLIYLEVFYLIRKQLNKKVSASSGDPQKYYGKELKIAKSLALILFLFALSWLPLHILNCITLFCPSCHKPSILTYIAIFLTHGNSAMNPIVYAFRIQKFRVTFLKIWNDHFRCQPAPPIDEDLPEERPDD

Chain of Cathepsin D (P07339 65-162 limits assumed): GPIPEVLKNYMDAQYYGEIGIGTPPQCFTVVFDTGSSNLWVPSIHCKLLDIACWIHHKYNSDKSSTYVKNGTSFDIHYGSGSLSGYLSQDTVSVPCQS
Chain of Cathepsin D (P07339 169-412 limits assumed): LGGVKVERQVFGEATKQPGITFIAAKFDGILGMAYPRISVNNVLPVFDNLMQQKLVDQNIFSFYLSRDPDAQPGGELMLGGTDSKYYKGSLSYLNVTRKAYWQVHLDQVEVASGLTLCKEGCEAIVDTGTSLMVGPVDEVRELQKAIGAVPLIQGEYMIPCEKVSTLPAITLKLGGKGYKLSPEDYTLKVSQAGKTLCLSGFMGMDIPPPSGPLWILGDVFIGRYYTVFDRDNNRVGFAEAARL
Chain of Plasmepsin II (P46925 whole entry): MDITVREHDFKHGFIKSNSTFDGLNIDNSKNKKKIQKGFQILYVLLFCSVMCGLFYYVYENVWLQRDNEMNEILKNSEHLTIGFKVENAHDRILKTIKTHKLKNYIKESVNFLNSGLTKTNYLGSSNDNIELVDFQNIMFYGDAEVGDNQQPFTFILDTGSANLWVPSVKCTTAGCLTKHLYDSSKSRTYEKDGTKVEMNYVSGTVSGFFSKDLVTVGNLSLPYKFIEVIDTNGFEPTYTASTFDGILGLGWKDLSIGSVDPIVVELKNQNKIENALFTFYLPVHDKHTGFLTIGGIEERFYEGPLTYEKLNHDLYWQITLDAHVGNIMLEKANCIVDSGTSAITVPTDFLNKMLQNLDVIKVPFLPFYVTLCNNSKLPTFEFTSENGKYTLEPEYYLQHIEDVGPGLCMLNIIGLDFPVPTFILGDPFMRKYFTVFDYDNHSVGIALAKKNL

In the case of CCCCNC(=O)CC(O)C(Cc1ccccc1)NC(=O)C(NC(=O)COc1ccc2ccccc2c1)c1ccccc1 (stereo not given), the pKi (Cathepsin D) was 6.96 and the pKi (Plasmepsin II) was 5.24.

Molecule CC1C(=O)c2nc(CCCN3N=C(c4ccccc4)CCC3=O)[nH]c2N(C)C1=O (stereo not given) has a pKi (Adenosine receptor A1) of 4.97.

With CCC(C)C(NC(=O)CN1CCC(C(N)=O)(c2ccccc2)CC1)C(=O)NC(CC(C)C)C(O)CC(=O)NCCCc1ccccc1 (stereo not given) the pKi (Cathepsin D) was 5.41 and the pKi (Plasmepsin II) was 6.22.

With CCCCNC(=O)CC(O)C(Cc1ccccc1)NC(=O)C(CC(C)C)NC(=O)COc1ccc2ccccc2c1 (stereo not given) the pKi (Cathepsin D) was 6.04 and the pKi (Plasmepsin II) was 5.25.

Work on CCCC1C(=O)c2nc(CCN3N=C(Cl)CCC3=O)[nH]c2N(C)C1=O (stereo not given) yielded a pKi (Adenosine receptor A1) of 6.33.

CC1C(=O)c2nc(CCN3N=C(c4ccccc4)CCC3=O)[nH]c2N(C)C1=O (stereo not given) gave a pKi (Adenosine receptor A1) of 5.21.

CCCCNC(=O)CC(O)C(Cc1ccccc1)NC(=O)C(Cc1ccccc1)NC(=O)COc1ccc2ccccc2c1 (stereo not given) gave a pKi (Cathepsin D) of 5.89 and a pKi (Plasmepsin II) of 4.92.

For CC1C(=O)c2nc(CCCN3N=C(Cl)CCC3=O)[nH]c2N(C)C1=O (stereo not given), the pKi (Adenosine receptor A1) was 5.06.

Molecule CC1C(=O)c2nc(CCCCN3N=C(Cl)CCC3=O)[nH]c2N(C)C1=O (stereo not given) has a pKi (Adenosine receptor A1) of 6.43.

For CCCCNC(=O)CC(O)C(CC(C)C)NC(=O)C(CCC(N)=O)NC(=O)COc1ccc2ccccc2c1 (stereo not given), the pKi (Cathepsin D) was 6.70 and the pKi (Plasmepsin II) was < 4.52.

Work on CCCCNC(=O)CC(O)C(Cc1ccccc1)NC(=O)[C@@H](NC(=O)c1ccc(CN2CCCC2)cc1)[C@@H](C)CC (stereo not given in full) yielded a pKi (Cathepsin D) of 5.92.

CCCC1C(=O)c2nc(CCCCN3N=C(c4ccccc4)CCC3=O)[nH]c2N(C)C1=O (stereo not given) was tested, and the pKi (Adenosine receptor A1) was 6.42.

With CCCCNC(=O)CC(O)C(Cc1ccccc1)NC(=O)C(NC(=O)Cc1ccc2ccccc2c1)C(C)CC (stereo not given) the pKi (Cathepsin D) was 6.49 and the pKi (Plasmepsin II) was 7.30.

Molecule CCCC1C(=O)c2nc(CCCN3N=C(Cl)CCC3=O)[nH]c2N(C)C1=O (stereo not given) has a pKi (Adenosine receptor A1) of 5.92.

With CCCCNC(=O)CC(O)C(CC(C)C)NC(=O)C(NC(=O)CN1CCC(C(N)=O)(c2ccccc2)CC1)C(C)CC (stereo not given) the pKi (Cathepsin D) was 5.26 and the pKi (Plasmepsin II) was 6.39.

For CCCC1C(=O)c2nc(CCN3N=C(c4ccccc4)CCC3=O)[nH]c2N(C)C1=O (stereo not given), the pKi (Adenosine receptor A1) was 6.12.

CC1C(=O)c2nc(CN3N=C(Cl)CCC3=O)[nH]c2N(C)C1=O (stereo not given) was tested, and the pKi (Adenosine receptor A1) was < 4.00.

Molecule CC1C(=O)c2nc(CCCN3N=CCCC3=O)[nH]c2N(C)C1=O (stereo not given) has a pKi (Adenosine receptor A1) of 4.90.

Molecule CCCCNC(=O)CC(O)C(CC(C)C)NC(=O)C(NC(=O)Cc1cc(OC)ccc1C)C(C)CC (stereo not given) has a pKi (Cathepsin D) of 5.62 and a pKi (Plasmepsin II) of 6.66.

In the case of CCCC1C(=O)c2nc(CN3N=C(c4ccccc4)CCC3=O)[nH]c2N(C)C1=O (stereo not given), the pKi (Adenosine receptor A1) was 5.64.

CC1C(=O)c2nc(CCN3N=C(Cl)CCC3=O)[nH]c2N(C)C1=O (stereo not given) gave a pKi (Adenosine receptor A1) of 4.83.

CCCC1C(=O)c2nc(CCCN3N=C(c4ccccc4)CCC3=O)[nH]c2N(C)C1=O (stereo not given) gave a pKi (Adenosine receptor A1) of 6.09.

Molecule CC1C(=O)c2nc(CCCCN3N=C(c4ccccc4)CCC3=O)[nH]c2N(C)C1=O (stereo not given) has a pKi (Adenosine receptor A1) of 5.67.

With CCCC1C(=O)c2nc(CCCCN3N=C(Cl)CCC3=O)[nH]c2N(C)C1=O (stereo not given) the pKi (Adenosine receptor A1) was 6.72.

In the case of CCCC1C(=O)c2nc(CN3N=C(Cl)CCC3=O)[nH]c2N(C)C1=O (stereo not given), the pKi (Adenosine receptor A1) was 5.04.

Molecule CCCCNC(=O)CC(O)C(CC(C)C)NC(=O)C(NC(=O)Cc1cc(OC)ccc1C)C(C)C (stereo not given) has a pKi (Cathepsin D) of 5.80 and a pKi (Plasmepsin II) of 6.30.

CC1C(=O)c2nc(CCN3N=CCCC3=O)[nH]c2N(C)C1=O (stereo not given) was tested, and the pKi (Adenosine receptor A1) was 4.89.

CCCCNC(=O)CC(O)C(CC(C)C)NC(=O)C(NC(=O)Cc1ccc2ccccc2c1)C(C)CC (stereo not given) was tested, and the pKi (Cathepsin D) was 7.30 and the pKi (Plasmepsin II) was 7.05.

With CCCCNC(=O)CC(O)C(CC(C)C)NC(=O)C(NC(=O)COc1ccc2ccccc2c1)c1ccccc1 (stereo not given) the pKi (Cathepsin D) was 6.70 and the pKi (Plasmepsin II) was 6.25.

CC1C(=O)c2nc(CN3N=C(c4ccccc4)CCC3=O)[nH]c2N(C)C1=O (stereo not given) was tested, and the pKi (Adenosine receptor A1) was 4.27.

Molecule CCCCNC(=O)CC(O)C(CC(C)C)NC(=O)C(NC(=O)Cc1cc(OC)ccc1C)c1ccccc1 (stereo not given) has a pKi (Cathepsin D) of 5.68 and a pKi (Plasmepsin II) of 6.23.

Work on CCCCNC(=O)C[C@H](O)[C@H](Cc1ccccc1)NC(=O)[C@@H](NC(=O)COc1ccc2ccccc2c1)C(C)CC (stereo not given in full) yielded a pKi (Cathepsin D) of 6.25 and a pKi (Plasmepsin II) of 6.96.
